Measured values: patent US11584763B2, “Chromenopyridine derivatives as phosphatidylinositol phosphate kinase inhibitors” (HIBERCELL, INC., priority 2017, dated 2023)

Assays:
PIP4K2B = target: T1, PIP4K2B (Homo sapiens, UniProt P78356); assay: Trans-FI P kinase assay PIP4K2B (PIP4KtypeIIB inhibition assay); assay type: biochemical; details: compounds listed under IC50 bin headings; 100 uM GTP; read-out: Trans-FI P kinase assays: PIP4K2B IC50
T1 construct: made in house; host or cells: E. coli
T1 sequence (P78356 1-416): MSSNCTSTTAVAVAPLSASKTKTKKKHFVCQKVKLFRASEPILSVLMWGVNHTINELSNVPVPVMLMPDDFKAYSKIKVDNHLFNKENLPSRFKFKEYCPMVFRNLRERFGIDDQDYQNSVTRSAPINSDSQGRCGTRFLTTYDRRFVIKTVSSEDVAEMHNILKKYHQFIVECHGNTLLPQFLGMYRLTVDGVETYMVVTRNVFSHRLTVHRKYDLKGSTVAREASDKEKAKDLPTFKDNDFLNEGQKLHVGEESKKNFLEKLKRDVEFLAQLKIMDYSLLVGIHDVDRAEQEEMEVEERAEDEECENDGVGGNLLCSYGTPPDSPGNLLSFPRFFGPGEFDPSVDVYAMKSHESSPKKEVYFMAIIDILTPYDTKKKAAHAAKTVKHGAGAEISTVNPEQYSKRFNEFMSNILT
Description: GST tagged PIP4KtypeIIA and B enzymes were overexpressed in E. Coli and purified to >80% homogeneity. Phosphatidyl inositol-5-phosphate (PI5P, Cat. #850152, Avanti Polar Lipids Inc.) was used as the lipid substrate and phosphatidyl ethanolamine (DOPE 18:1, Cat. #850725, Avanti Polar Lipids Inc.) was used as the carrier lipid for assays. Ultrapure ATP and GTP was purchased from Bellbrooke Labs. ADP Glo reagents were obtained from Promega. Transcreener FI reagent was obtained from Bellbrooke labs.
GST-tagged PIP4KtypeIIB (3.4 uL, 2.77 mg/mL) was diluted to 5 mL using HNE buffer to yield 5× enzyme stock (25 nM)
Lipid Preparation: In a 10 mL pyrex glass vial, 1 ug of PI5P and 1 ug of DOPE were suspended in 2.5 mL of HEPES buffer mix and 2.5 mL of H:E buffer. The contents were mixed and sonicated for 3 min to yield a translucent lipid stock.
Compound Preparation: Compounds were stored as 5 mM stocks in neat DMSO as room temperature in glass vials. 5 mM stocks were diluted to 2 mM and then serially diluted (3×) in neat DMSO in 96 well polypropylene plates. From the serially diluted stocks, 3 uL was delivered into 250 uL of 25% DMSO (in water) to generate 5× compound stocks. Typically, the highest compound conc. was 24 uM.
The assay volume was kept at 25 uL. To each well of the reaction plate, 10 uL of lipid stock (1:1 ratio PI5P:DOPE) was delivered. This was followed by the addition of 5 uL of compound in 25% DMSO. Then, to each well, 5 uL of 25 nM (5×) typeIIB enzyme was delivered. The contents were mixed well and incubated for 1 h at 27 C. After 1 h, reaction was initiated by adding 5 uL of 500 uM GTP and the contents were mixed well with a multi-channel pipetteman. The final concentration of the reagents are as follows: 50 mM HEPES, pH 7.3, 10 mM MgCl2, 20 mM NaCl, 0.01% v/v triton-X100, 5% DMSO, 100 uM GTP, 80 uM (2 ug) PI5P, 2 ug DOPE, and 5 nM PIP4KIIB Typically, the highest conc. of compounds was 4.8 uM and the lowest conc. was 0.
After 2 h, the reaction was quenched by adding 25 uL of transcreener FI reagent. The contents were incubated at RT for 1 h and the Fluorescence (Ex: 584 Em: 623) was read using Molecular Devices Paradigm plate reader. […] The blanks were averaged and subtracted from all other wells. Using a calibration curve, RFU was converted to uM GDP (product). IC50 was calculated by plotting the residual activity (expressed as % No inhibitor control) vs. log [Inh. conc.]

PIP4K 2A = target: T2, PIP4K 2A (Homo sapiens, UniProt P48426); assay: ADP-glo kinase assay PIP4K 2A; assay type: biochemical; parameters: 4 nM PIP4K2A (full length protein, SignalChem); purchased SignalChem; details: compounds listed under IC50 bin headings
T2 sequence (P48426 1-406): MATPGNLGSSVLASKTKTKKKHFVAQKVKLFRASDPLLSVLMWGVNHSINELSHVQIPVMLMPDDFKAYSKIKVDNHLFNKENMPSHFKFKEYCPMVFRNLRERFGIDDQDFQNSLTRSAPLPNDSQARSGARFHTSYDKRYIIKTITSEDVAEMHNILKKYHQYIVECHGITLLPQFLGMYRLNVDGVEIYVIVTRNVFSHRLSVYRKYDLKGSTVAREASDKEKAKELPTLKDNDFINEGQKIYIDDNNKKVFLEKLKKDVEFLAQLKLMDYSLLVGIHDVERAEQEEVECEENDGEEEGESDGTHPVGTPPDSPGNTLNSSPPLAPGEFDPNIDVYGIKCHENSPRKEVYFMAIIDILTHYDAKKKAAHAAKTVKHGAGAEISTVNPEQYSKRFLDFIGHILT
Protocol: Dilution series of the compounds were prepared in DMSO at 100 times the final assay concentration (n1=n0/3 in 10 points). The compounds were further diluted to three times the assay concentration in assay buffer (20 mM MOPS pH 7.2, 25 mM magnesium chloride, 0.005% Tween 20). 6 μL of the diluted compounds were added to a 384 well assay plate followed by 9 μL of a mix consisting of 4 nM PIP4K2A (full length protein, SignalChem) and 100 μM PI(5)P diC8 (Tebu-Bio). Enzyme and compounds were pre-incubated at room temperature for 15 minutes.
Then 3 μL of a solution containing 60 μM ATP (Promega) in assay buffer was added to the wells containing compound and enzyme and mixing was performed by pipetting several times. The reaction was incubated at room temperature for 1 h. Then 18 μL of ADP-Glo™ Reagent (Promega) was added to stop the kinase reaction and deplete the unconsumed ATP, mixing was performed by pipetting several times. The plate was incubated at room temperature for 40 minutes before addition of 36 μL of Kinase Detection Reagent (Promega) to convert ADP to ATP and introduce luciferase and luciferin to detect ATP. The reaction was incubated at room temperature for 40 minutes before the luminescence was measured in a in a Victor 3V 1420 multilabel counter (Perkin Elmer).
Percent inhibition of the compounds as compared to dimethyl sulfoxide treated control samples was calculated. Compound concentration versus percent inhibition were fitted to generate IC50 values.

| IC50 (PIP4K2B) [nM] | IC50 (PIP4K 2A) [nM] | SMILES |
| --- | --- | --- |
| 10 to 100 | 1 to 10 | CC1Oc2cc(N3CCCC3=O)ccc2-c2cnc(Nc3cncc(NC(=O)CCC(=O)O)c3)cc21 (stereo not drawn) [Example 105, 4-((5-((5-methyl-8-(2-oxopyrrolidin-1-yl)-5H-chromeno[4,3-c]pyridin-3-yl)amino)pyridin-3-yl)amino)-4-oxobutanoic acid] |
| 10 to 100 | 1 to 10 | CC1Oc2cc(N3CCCC3=O)ccc2-c2cnc(Nc3cncc(NC(=O)Cc4ccccc4)c3)cc21 (stereo not drawn) [Example 107, N-(5-((5-methyl-8-(2-oxopyrrolidin-1-yl)-5H-chromeno[4,3-c]pyridin-3-yl)amino)pyridin-3-yl)-2-phenylacetamide] |
| 10 to 100 | 1 to 10 | CC1Oc2cc(N3CCCC3=O)ccc2-c2cnc(Nc3cncc(NC(=O)c4ccc5cc[nH]c5c4)c3)cc21 (stereo not drawn) [Example 108, N-(5-((5-methyl-8-(2-oxopyrrolidin-1-yl)-5H-chromeno[4,3-c]pyridin-3-yl)amino)pyridin-3-yl)-1H-indole-6-carboxamide] |
| 1 to 10 | 1 to 10 | CC1Oc2cc(N3CCCC3=O)ccc2-c2cnc(Nc3cncc(NC(=O)c4ccc5ncoc5c4)c3)cc21 (stereo not drawn) [Example 109, N-(5-((5-methyl-8-(2-oxopyrrolidin-1-yl)-5H-chromeno[4,3-c]pyridin-3-yl)amino)pyridin-3-yl)benzo[d]oxazole-6-carboxamide] |
| 10 to 100 | 1 to 10 | CC1Oc2cc(N3CCCC3=O)ccc2-c2cnc(Nc3cncc(NC(=O)c4ccc(NC=O)c(O)c4)c3)cc21 (stereo not drawn) [Example 109A, 4-formamido-3-hydroxy-N-(5-((5-methyl-8-(2-oxopyrrolidin-1-yl)-5H-chromeno[4,3-c]pyridin-3-yl)amino)pyridin-3-yl)benzamide] |
| 10 to 100 | 1 to 10 | CC1Oc2cc(N3CCCC3=O)ccc2-c2cnc(Nc3cncc(NC(=O)CCc4ccccc4)c3)cc21 (stereo not drawn) [Example 110, N-(5-((5-methyl-8-(2-oxopyrrolidin-1-yl)-5H-chromeno[4,3-c]pyridin-3-yl)amino)pyridin-3-yl)-3-phenylpropanamide] |

Second part, the compound before the results:

| SMILES | IC50 (PIP4K2B) [nM] | IC50 (PIP4K 2A) [nM] |
| --- | --- | --- |
| CC1Oc2cc(N3CCCC3=O)ccc2-c2cnc(Nc3cnc4cccc(S(C)(=O)=O)c4c3)cc21 (stereo not drawn) [Example 92, 1-(5-methyl-3-((5-(methylsulfonyl)quinolin-3-yl)amino)-5H-chromeno[4,3-c]pyridin-8-yl)pyrrolidin-2-one] | > 1000 | 1 to 10 |
| COC(=O)Nc1cncc(Nc2cc3c(cn2)-c2ccc(N4CCCC4=O)cc2OC3C)c1 (stereo not drawn) [Example 98, methyl (5-((5-methyl-8-(2-oxopyrrolidin-1-yl)-5H-chromeno[4,3-c]pyridin-3-yl)amino)pyridin-3-yl)carbamate] | 10 to 100 | 1 to 10 |
| CNC(=O)Nc1cncc(Nc2cc3c(cn2)-c2ccc(N4CCCC4=O)cc2OC3C)c1 (stereo not drawn) [Example 99, 1-methyl-3-(5-((5-methyl-8-(2-oxopyrrolidin-1-yl)-5H-chromeno[4,3-c]pyridin-3-yl)amino)pyridin-3-yl)urea] | 10 to 100 | 1 to 10 |
| CC1Oc2cc(N3CCCC3=O)ccc2-c2cnc(Nc3cncc(NC(=O)CO)c3)cc21 (stereo not drawn) [Example 101, 2-hydroxy-N-(5-((5-methyl-8-(2-oxopyrrolidin-1-yl)-5H-chromeno[4,3-c]pyridin-3-yl)amino)pyridin-3-yl)acetamide] | 10 to 100 | 1 to 10 |
| CC1Oc2cc(N3CCCC3=O)ccc2-c2cnc(Nc3cncc(NC(=O)Nc4ccccn4)c3)cc21 (stereo not drawn) [Example 102, 1-(5-((5-methyl-8-(2-oxopyrrolidin-1-yl)-5H-chromeno[4,3-c]pyridin-3-yl)amino)pyridin-3-yl)-3-(pyridin-2-yl)urea] | 10 to 100 | 1 to 10 |
| CC1Oc2cc(N3CCCC3=O)ccc2-c2cnc(Nc3cncc(NC(=O)C4CCNC4=O)c3)cc21 (stereo not drawn) [Example 104, N-(5-((5-methyl-8-(2-oxopyrrolidin-1-yl)-5H-chromeno[4,3-c]pyridin-3-yl)amino)pyridin-3-yl)-2-oxopyrrolidine-3-carboxamide] | 10 to 100 | 1 to 10 |
